Assays:
SALL4 mRNA = assay: Quantitative RT-PCR of total SALL4 mRNA in H9 hES cells; type: cell-based, human; settings: 10 µM thalidomide, 24 h vs DMSO
Experimental: RNA was isolated using the RNeasy Plus mini kit (Qiagen) and cDNA created by reverse transcription using ProtoScript II reverse transcriptase (NEB) following the manufacturer’s instructions. The following primer sets from IDT were used with SYBR Green Master Mix (Applied Biosystems) to probe both GAPDH and total SALL4 levels:
Analysis was performed on a CFX Connect Real-Time PCR System (Bio-Rad) in a white 96-well PCR plate. Relative expression levels were calculated using the ΔΔCT method.

IKZF3 = IKZF3 (Homo sapiens, UniProt Q96SW2+Q9UKT9); assay: TMT proteomics MM1s cells: IKZF3 abundance; settings: 5 h vs DMSO, thalidomide 10 µM, lenalidomide 5 µM, pomalidomide 1 µM
[1] = target: Flag-mmSALL4 containing a humanized ZnF2 (Y415F, P418S, I419V, L430F, Q435H) (UniProt Q8BX22+Q96SW2, I419V/L434F/P418S/Q435H/Y415F); assay: Western blot of Flag-mmSALL4 with humanized ZnF2 in Kelly cells; type: cell-based, mouse; settings: thalidomide, 24 h
Experimental: (§1) For transient transfection, 0.2 million cells were seeded per well in a 12 well plate on day 1. On day 2, cells were transfected with 200–300 ng of plasmid (pNTM-Flag containing gene of interest) using 2 µL of lipofectamine 2000 transfection reagent (Invitrogen). On day 3, the desired concentration of IMiD was added to each well and cells were harvested after 24 h for western blot analysis using the protocol described above.

ZNF827 = ZNF827 (Homo sapiens, UniProt Q17R98+Q96SW2); assay: TMT proteomics Kelly cells: ZNF827 abundance; settings: 5 h vs DMSO, thalidomide 10 µM, lenalidomide 5 µM, pomalidomide 1 µM
VRTN = target: T1, VRTN (Homo sapiens, UniProt Q9H8Y1); assay: TMT proteomics H9 hESC: VRTN abundance; type: cell-based; settings: H9 hES cells, 5 h vs DMSO; thalidomide 10 µM, pomalidomide 1 µM
T1 construct: endogenous in cells; host or cells: H9 hESC
Description: (§2) We established a mass spectrometry-based workflow (Figure 1—figure supplement 1A) to detect IMiD-induced protein degradation in hESC.
(§3) Proteins were precipitated using methanol/chloroform.

ZFP91 [2] = target: T2, ZFP91 (Homo sapiens, UniProt Q96JP5+Q96SW2); assay: TMT proteomics MM1s cells: ZFP91 abundance; settings: 5 h vs DMSO, thalidomide 10 µM, lenalidomide 5 µM, pomalidomide 1 µM
CYR61 = assay: TMT proteomics H9 hESC: CYR61 abundance; type: cell-based, human; settings: H9 hES cells, 5 h vs DMSO; thalidomide 10 µM
Description: as §2, §3

SALL4 [3] = target: T3, SALL4 (Homo sapiens, UniProt Q9UJQ4); assay: Western blot of SALL4 in H9 hESC; type: cell-based; design: endogenous in cells; host or cells: Kelly, H9 hESC, SK-N-DZ cells; settings: increasing doses, 24 h
[4] = system: Flag-hsSALL4^G416A, Flag-hsSALL4^G416N; assay: Western blot of transfected Flag-hsSALL4 G416A/G416N in Kelly cells; type: cell-based, human; settings: thalidomide, 24 h
Experimental: as §1

SALL4 [5] = target: T3, SALL4; assay: TMT proteomics H9 hESC: SALL4 abundance; type: cell-based; settings: H9 hES cells, 5 h vs DMSO; thalidomide 10 µM, lenalidomide 5 µM, pomalidomide 1 µM
Description: as §2, §3

Flag-hsSALL4^WT = Flag-hsSALL4^WT (Homo sapiens, UniProt Q9UJQ4); assay: Western blot of transfected Flag-hsSALL4 WT in Kelly cells; type: cell-based; settings: 24 h
Experimental: as §1

PPA1 = assay: TMT proteomics H9 hESC: PPA1 abundance; type: cell-based, human; settings: H9 hES cells, 5 h vs DMSO; thalidomide 10 µM, lenalidomide 5 µM
Description: as §2, §3

zebrafish embryos = system: zebrafish embryos; design: method as in Ito et al., 2010; settings: ref Ito et al., 2010; cited from earlier work
PPP3R1 = assay: TMT proteomics MM1s cells: PPP3R1 abundance; type: cell-based, human; settings: 5 h vs DMSO, thalidomide 10 µM
Description: as §3

IKZF1 = IKZF1 (Homo sapiens, UniProt Q13422+Q96SW2); assay: TMT proteomics MM1s cells: IKZF1 abundance; settings: 5 h vs DMSO, thalidomide 10 µM, lenalidomide 5 µM, pomalidomide 1 µM
[6] = 2013, cited from earlier work
SALL4 [7] = assay: Western blot of SALL4 in CRBN-/- Kelly and HEK293T cells; type: cell-based, human; settings: increasing concentrations, 24 h
ZNF692 = ZNF692 (Homo sapiens, UniProt Q96SW2+Q9BU19); assay: TMT proteomics Kelly cells: ZNF692 abundance; settings: 5 h vs DMSO, thalidomide 10 µM, lenalidomide 5 µM, pomalidomide 1 µM
RPS17; RPS17L = assay: TMT proteomics H9 hESC: RPS17 abundance; type: cell-based, human; settings: H9 hES cells, 5 h vs DMSO; thalidomide 10 µM
Description: as §2, §3

ZFP91 [8] = target: T2, ZFP91; assay: TMT proteomics Kelly cells: ZFP91 abundance; settings: 5 h vs DMSO, thalidomide 10 µM, lenalidomide 5 µM, pomalidomide 1 µM
SALL4 [9] = target: T3, SALL4; assay: Western blot of SALL4 in Kelly, SK-N-DZ, HEK293T and H661 cells; settings: increasing concentrations, 24 h
chicken embryos = system: chicken embryos; design: method as in Ito et al., 2010; settings: direct application to the limb buds, ref Ito et al., 2010; cited from earlier work
[10] = target: hsSALL4ZnF2 / DDB1∆B-CRBN (Homo sapiens, UniProt Q96SW2+Q9UJQ4); assay: TR-FRET IMiD-dependent binding of SALL4ZnF2 to CRBN; settings: DDB1∆B-CRBN 200 nM, hsSALL4ZnF2 100 nM
Description: The TR-FRET signal of each data point was extracted by calculating the 520/490 nm ratios.

mmSALL4 = target: T4, mmSALL4 (Mus musculus, UniProt Q8BX22); assay: Western blot of mmSALL4 in mouse embryonic stem cells; type: cell-based; settings: increasing concentrations, 24 h
T4 construct: endogenous in cells; host or cells: TC1 mouse embryonic stem cells

RAB28 = RAB28 (Homo sapiens, UniProt P51157); assay: TMT proteomics MM1s cells: RAB28 abundance; settings: 5 h vs DMSO, thalidomide 10 µM, lenalidomide 5 µM, pomalidomide 1 µM
ACAD9 = assay: TMT proteomics Kelly cells: ACAD9 abundance; type: cell-based, human; settings: 5 h vs DMSO, thalidomide 10 µM
Description: as §3

[11] = system: Flag-hsSALL4^G600A, hsSALL4^G600N; assay: Western blot of transfected Flag-hsSALL4 G600A/G600N in Kelly cells; type: cell-based, human; settings: thalidomide, 24 h
Experimental: as §1

SALL4 [12] = target: T3, SALL4; assay: TMT proteomics Kelly cells: SALL4 abundance; settings: 5 h vs DMSO, thalidomide 10 µM, lenalidomide 5 µM, pomalidomide 1 µM
[13] = system: IMiD-dependent neo-substrates; assay: TMT proteomics profiling of IMiD-dependent neo-substrates (hESC, Kelly, SK-N-DZ, MM1s); type: cell-based, human
Description: as §2, §3

[14] = target: DDB1∆B-CRBN_(Spy-BodipyFL), Q16531;Q96SW2; assay: TR-FRET; settings: terbium-streptavidin 4 nM, read off a plot
[15] = value at the highest DDB1∆B-CRBN concentration (about 12.8 µM), SALL4 ZnF1-2 100 nM, thalidomide 50 µM, parent: est. 45

T4 sequence (Q8BX22 whole entry): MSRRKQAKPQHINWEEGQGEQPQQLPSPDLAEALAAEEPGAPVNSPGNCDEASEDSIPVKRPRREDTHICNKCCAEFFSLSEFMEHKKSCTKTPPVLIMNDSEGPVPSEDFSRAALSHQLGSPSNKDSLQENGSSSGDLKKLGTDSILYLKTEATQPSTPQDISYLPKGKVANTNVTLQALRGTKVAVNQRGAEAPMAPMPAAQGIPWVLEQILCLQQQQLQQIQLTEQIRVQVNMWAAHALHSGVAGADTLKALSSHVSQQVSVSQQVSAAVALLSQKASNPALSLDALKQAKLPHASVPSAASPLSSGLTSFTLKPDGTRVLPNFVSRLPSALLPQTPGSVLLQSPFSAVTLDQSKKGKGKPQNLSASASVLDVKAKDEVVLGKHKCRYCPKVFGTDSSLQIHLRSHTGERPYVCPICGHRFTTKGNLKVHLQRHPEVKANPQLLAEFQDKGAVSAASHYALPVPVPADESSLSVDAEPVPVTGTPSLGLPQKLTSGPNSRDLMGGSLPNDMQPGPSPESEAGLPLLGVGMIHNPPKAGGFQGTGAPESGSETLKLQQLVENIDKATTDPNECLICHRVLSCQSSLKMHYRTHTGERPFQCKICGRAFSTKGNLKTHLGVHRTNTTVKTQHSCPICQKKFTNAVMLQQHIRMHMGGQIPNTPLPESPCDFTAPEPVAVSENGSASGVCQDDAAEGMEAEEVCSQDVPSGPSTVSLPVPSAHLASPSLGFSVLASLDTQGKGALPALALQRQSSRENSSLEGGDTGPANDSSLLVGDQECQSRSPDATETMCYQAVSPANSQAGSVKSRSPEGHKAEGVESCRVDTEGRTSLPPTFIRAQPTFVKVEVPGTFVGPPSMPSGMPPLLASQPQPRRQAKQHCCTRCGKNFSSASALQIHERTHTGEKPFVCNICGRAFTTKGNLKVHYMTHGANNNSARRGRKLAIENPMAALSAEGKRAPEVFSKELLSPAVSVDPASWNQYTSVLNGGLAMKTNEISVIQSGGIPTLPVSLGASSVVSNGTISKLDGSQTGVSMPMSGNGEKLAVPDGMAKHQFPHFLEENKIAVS
T1 sequence (Q9H8Y1 whole entry): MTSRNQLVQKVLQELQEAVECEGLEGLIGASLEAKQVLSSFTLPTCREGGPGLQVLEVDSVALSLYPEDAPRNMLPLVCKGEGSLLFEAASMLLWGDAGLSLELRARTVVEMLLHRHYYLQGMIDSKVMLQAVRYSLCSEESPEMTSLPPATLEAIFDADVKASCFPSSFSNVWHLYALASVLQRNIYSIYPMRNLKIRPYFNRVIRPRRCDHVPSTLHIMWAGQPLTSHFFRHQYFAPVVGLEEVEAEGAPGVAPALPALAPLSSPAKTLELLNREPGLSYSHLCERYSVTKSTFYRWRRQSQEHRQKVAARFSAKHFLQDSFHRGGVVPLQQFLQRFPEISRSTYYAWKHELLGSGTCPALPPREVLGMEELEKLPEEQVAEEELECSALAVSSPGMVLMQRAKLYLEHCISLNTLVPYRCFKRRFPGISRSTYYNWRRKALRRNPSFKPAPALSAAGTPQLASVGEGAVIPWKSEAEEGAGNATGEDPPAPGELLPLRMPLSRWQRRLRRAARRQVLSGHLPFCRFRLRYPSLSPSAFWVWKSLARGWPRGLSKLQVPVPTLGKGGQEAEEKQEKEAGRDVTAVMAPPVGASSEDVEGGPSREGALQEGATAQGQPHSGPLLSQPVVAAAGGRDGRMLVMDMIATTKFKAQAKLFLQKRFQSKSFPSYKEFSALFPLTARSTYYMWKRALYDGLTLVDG
Chain of Flag-hsSALL4^WT (Q9UJQ4 whole entry): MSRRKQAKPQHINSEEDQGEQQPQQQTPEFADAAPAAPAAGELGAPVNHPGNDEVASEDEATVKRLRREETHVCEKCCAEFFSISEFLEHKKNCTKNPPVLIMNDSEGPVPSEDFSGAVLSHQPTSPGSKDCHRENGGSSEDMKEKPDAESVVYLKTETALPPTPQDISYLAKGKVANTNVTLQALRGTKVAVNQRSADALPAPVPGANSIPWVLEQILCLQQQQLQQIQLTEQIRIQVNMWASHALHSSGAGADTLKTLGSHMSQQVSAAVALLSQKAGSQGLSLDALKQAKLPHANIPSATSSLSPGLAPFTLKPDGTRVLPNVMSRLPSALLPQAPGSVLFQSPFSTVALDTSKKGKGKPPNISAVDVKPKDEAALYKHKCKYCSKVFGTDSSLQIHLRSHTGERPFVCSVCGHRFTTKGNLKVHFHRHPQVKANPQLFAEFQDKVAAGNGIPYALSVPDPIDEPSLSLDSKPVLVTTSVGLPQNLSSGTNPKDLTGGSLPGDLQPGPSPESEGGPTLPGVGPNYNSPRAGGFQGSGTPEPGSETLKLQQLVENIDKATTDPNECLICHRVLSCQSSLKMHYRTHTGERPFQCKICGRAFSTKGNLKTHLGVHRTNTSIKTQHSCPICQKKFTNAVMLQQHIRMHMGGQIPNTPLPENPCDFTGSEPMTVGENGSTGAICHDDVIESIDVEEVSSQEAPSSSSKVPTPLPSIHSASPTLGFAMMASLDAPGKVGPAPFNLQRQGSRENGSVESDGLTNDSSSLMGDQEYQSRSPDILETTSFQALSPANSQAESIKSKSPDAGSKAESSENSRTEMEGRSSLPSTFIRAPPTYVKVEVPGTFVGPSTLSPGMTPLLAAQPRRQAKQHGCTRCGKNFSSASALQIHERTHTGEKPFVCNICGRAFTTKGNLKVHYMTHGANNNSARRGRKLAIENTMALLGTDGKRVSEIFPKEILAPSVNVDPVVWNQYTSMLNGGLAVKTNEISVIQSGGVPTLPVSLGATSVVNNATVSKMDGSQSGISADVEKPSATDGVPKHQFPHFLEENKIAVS

For O=C1CCC(N2C(=O)c3ccccc3C2=O)C(=O)N1 (stereo not shown) [thalidomide], the “SALL4 mRNA level (qPCR, normalized to GAPDH)” value (SALL4 mRNA) was “upregulates SALL4 mRNA”, the “SALL4 mRNA level (qPCR, normalized to GAPDH)” value (SALL4 mRNA; listed as Thalidomide) was “did not influence the expression of SALL4 mRNA” and the “logFC IKZF3” value (IKZF3) was -0.3448. The “degradation of mmSALL4 with humanized ZnF2 domain” value [1] was “induce thalidomide-mediated mouse SALL4 degradation”, the “logFC ZNF827” value (ZNF827) was -0.4132 and the “logFC VRTN” value (VRTN) was -0.4098. For the same compound, the “logFC ZFP91” value (ZFP91 [2]) was -0.6875, the “logFC CYR61” value (CYR61) was 0.4402 and the “SALL4 protein levels (western blot)” value (SALL4 [3]) was “dose-dependent decrease in protein levels”. For the same compound, the “degradation of Flag-SALL4 with G416A or G416N mutations in ZnF2” value [4] was “rendered SALL4 stable”, the “logFC SALL4” value (SALL4 [5]) was -1.582 and the “degradation of ectopically expressed Flag-hsSALL4 wild type” value (Flag-hsSALL4^WT) was “readily degraded”. The “logFC PPA1” value (PPA1) was -0.1282, the “dose found to be teratogenic” value (zebrafish embryos) was 400 µM and the “logFC PPP3R1” value (PPP3R1) was -0.2263. For the same compound, the “logFC IKZF1” value (IKZF1) was -0.3052, the “plasma concentration in humans” value ([6]; ref Bai et al., Dahut et al., 2009) was ≤ 10 µM and the Cmax ([6]; typical dose 200–400 mg thalidomide, 25 mg lenalidomide, 2 mg pomalidomide, ref Chen et al., 2017, Hoffmann et al., Teo et al., 2004, read-out: maximum plasma concentration (Cmax)) was 5 to 10 µM. The “SALL4 degradation in CRBN-/- cells” value (SALL4 [7]) was “no degradation of SALL4 was observed”, the “logFC ZNF692” value (ZNF692) was -2.248 and the “logFC RPS17; RPS17L” value (RPS17; RPS17L) was -0.1321. The “logFC ZFP91” value (ZFP91 [8]) was -0.2749, the “SALL4 protein levels (western blot)” value (SALL4 [9]) was “dose-dependent decrease in SALL4 protein levels” and the “dose found to be teratogenic” value (chicken embryos) was 400 µM. The “rank order in binding observed with ZnF2” value [10] was “Pom >Thal >> Len”, the “degradation of mmSALL4 in mESC” value (mmSALL4) was “does not promote degradation of mmSALL4” and the “logFC RAB28” value (RAB28) was -0.4948. The “logFC ACAD9” value (ACAD9) was 0.09357, the “degradation of Flag-SALL4 with G600A or G600N mutations in ZnF4” value [11] was “readily degraded” and the “logFC SALL4” value (SALL4 [12]) was -1.628. The “number of substrates identified (rank order)” value ([13]; H9 hESC proteomics) was “Thal < Len << Pom” and the “substrates robustly degraded (each drug in addition to the preceding one)” value ([13]; proteomics across hESC, MM1s, Kelly, SK-N-DZ cells) was “ZNF692, SALL4, and the ubiquitin ligase RNF166”.

With “_(Strep-BirA)hsSALL4_(378-438) (ZnF1-2) (from UniProt Q9UJQ4) G416N” the response [14, 15] was 6 520/490.

For “_(Strep-BirA)hsSALL4_(378-438) (ZnF1-2) (from UniProt Q9UJQ4) S388N”, the response [14, 15] was 45 520/490, the response ([14]; value at the highest lenalidomide dose (log[Len] about -4.4 M), DDB1∆B-CRBN 200 nM, SALL4 ZnF1-2 100 nM, parent: est. 2.6) was 1.6 520/490 and the response ([14]; value at the highest pomalidomide dose (log[Pom] about -4.4 M), DDB1∆B-CRBN 200 nM, SALL4 ZnF1-2 100 nM, parent: est. 4.1) was 2.6 520/490. The response ([14]; value at the highest thalidomide dose (log[Thal] about -4.4 M), DDB1∆B-CRBN 200 nM, SALL4 ZnF1-2 100 nM, parent: est. 3.7) was 2.2 520/490.

With “_(Strep-BirA)hsSALL4_(402-436) (ZnF2) (from UniProt Q9UJQ4) G416A” the response ([14]; value at the highest lenalidomide dose (log[Len] about -4.4 M), DDB1∆B-CRBN 200 nM, SALL4 ZnF2 100 nM, parent: est. 0.47) was 0.075 520/490 and the response ([14]; value at the highest pomalidomide dose (log[Pom] about -4.4 M), DDB1∆B-CRBN 200 nM, SALL4 ZnF2 100 nM, parent: est. 0.97) was 0.09 520/490.

With “_(Strep-BirA)hsSALL4_(590-618) (ZnF4) (from UniProt Q9UJQ4) Q595H” the response ([14]; value at the highest thalidomide dose (log(Thal) about -4.5 M), DDB1∆B-CRBN 1 µM, SALL4 ZnF4 100 nM, parent: est. 0.27) was 0.19 520/490.
